The results in this text go back to patent publication US8710233B2 (Gruenenthal GmbH, priority 2005, dated 2014).

Holding throughout (type): cell-based
The target of assay [1] is T1, vanilloid receptor 1 (VR1/TRPV1) of the rat species (Rattus norvegicus, UniProt O35433).
T1 construct: The spinal column is removed from decapitated rats; from tissue; host or cells: primary cells dissociated from rat dorsal root ganglia
The experiment in a line: FLIPR Ca2+ influx assay on rat dorsal root ganglia cells (pharmacological method I). The following applies: table 4, capsaicin. An excerpt: I. Functional Investigation of the Vanilloid Receptor 1 (VR1/TRPV1 Receptor)
The agonistic or antagonistic action of the substances to be investigated on the vanilloid receptor 1 (VR1/TRPV1) of the rat species may be determined by the following assay. According to this assay, the influx of Ca^2+ through the receptor channel is quantified with the assistance of a Ca^2+-sensitive dye (type Fluo-4, Molecular Probes Europe BV, Leiden, Netherlands) in a Fluorescent Imaging Plate Reader (FLIPR, Molecular Devices, Sunnyvale, USA).
The spinal column is removed from decapitated rats and is placed directly in cold, i.e. located in an ice bath, HBSS buffer (Hank's buffered saline solution, Gibco Invitrogen GmbH, Karlsruhe, Germany) combined with 1 vol. % (percent by volume) of an AA solution (antibiotic/antimycotic solution, PAA, Pasching, Austria). The spinal column is cut open longitudinally and removed together with fasciae from the spinal canal. The dorsal root ganglia (DRGs) are then removed and in turn stored in cold HBSS buffer combined with 1 vol. % of an AA solution. The DRGs, from which all traces of blood and spinal nerves have been removed, are in each case transferred into 500 μL of cold collagenase type 2 (PAA, Pasching, Austria) and incubated for 35 minutes at 37° C. […] Once incubation is complete, the enzyme solution is carefully removed by pipette and the DRGs, which are left behind, are in each case combined with 500 μL of complete medium.
The DRGs are in each case repeatedly suspended, drawn by means of a syringe through […], no. 12 and no. 16 cannulas and transferred into 50 mL Falcon microtubes and each tube is made up to 15 mL with complete medium. The contents of each Falcon microtube are in each case filtered through a 70 μm Falcon filter insert and centrifuged for 10 minutes at 1200 revolutions and room temperature. The resultant pellet is in each case resuspended in 250 μL of complete medium and the cell count determined.
The number of cells in the suspension is adjusted to 3×10^5 per mL and a 150 μL portion of this suspension is in each case placed in a well of the cell culture plate which has been coated as described above.
The cells are then loaded with 2 μM Fluo-4 and 0.01 vol. % Pluronic F127 (Molecular Probes Europe BV, Leiden, Netherlands) in HBSS buffer (Hank's buffered saline solution, Gibco Invitrogen GmbH, Karlsruhe, Germany) for 30 min at 37° C., washed 3× with HBSS buffer and, after a further 15 minutes' incubation at room temperature, used for Ca^2+ measurement in the FLIPR assay. […] Quantification proceeds by measuring the highest fluorescence intensity (FC, fluorescence counts) over time.
The FLIPR protocol comprises 2 additions of substance. The compounds to be tested (10 μM) are firstly pipetted onto the cells and Ca^2+ influx is compared with the control (capsaicin 10 μM). This provides the percentage activation relative to the Ca^2+ signal after addition of 10 μM of capsaicin (CP). After 5 minutes' incubation, 100 nM of capsaicin are added and the influx of Ca^2+ is again determined.
Desensitising agonists and antagonists result in suppression of Ca^2+ influx. The percentage inhibition in comparison with the maximum achievable inhibition with 10 μM capsaicin is calculated.
Triplicate determinations (n═3) are performed and these are repeated in at least 3 independent experiments […].

The target of a further assay is T2, vanilloid receptor (VR1) (Homo sapiens, UniProt Q8NER1).
T2 construct: expressed in transfected cells; host or cells: CHO K1 cells (ECACC), stably transfected
The experiment in a line: FLIPR Ca2+ influx assay on CHO K1 cells transfected with the VR1 gene (pharmacological method II). The following applies: table 4; capsaicin; read-out: Ki (human) Cap.

The target of another assay is VR1/TRPV1 receptor (Homo sapiens, UniProt Q8NER1). The experiment in a line: IC50 (human) after pH stimulus. The following applies: for pIC50: table 4; for inhibition at 1 µM: ne = no effect.
[2] abbreviates: read-out: inhibition in percent, IC50 (human) after pH stimulus.

pIC50, pKi: −log10 of the molar value. Where two headings read alike, the source gives them in different places.

The term pKi denotes the negative decadic logarithm of the Ki, by convention in mol/L. As a reminder, the pIC50 is −log10 of the IC50, conventionally taken in molar units. Low readings indicate a high IC50, high ones a low IC50. Broadly, the inhibition is how much of the control response was suppressed.

T1 sequence (O35433 whole entry): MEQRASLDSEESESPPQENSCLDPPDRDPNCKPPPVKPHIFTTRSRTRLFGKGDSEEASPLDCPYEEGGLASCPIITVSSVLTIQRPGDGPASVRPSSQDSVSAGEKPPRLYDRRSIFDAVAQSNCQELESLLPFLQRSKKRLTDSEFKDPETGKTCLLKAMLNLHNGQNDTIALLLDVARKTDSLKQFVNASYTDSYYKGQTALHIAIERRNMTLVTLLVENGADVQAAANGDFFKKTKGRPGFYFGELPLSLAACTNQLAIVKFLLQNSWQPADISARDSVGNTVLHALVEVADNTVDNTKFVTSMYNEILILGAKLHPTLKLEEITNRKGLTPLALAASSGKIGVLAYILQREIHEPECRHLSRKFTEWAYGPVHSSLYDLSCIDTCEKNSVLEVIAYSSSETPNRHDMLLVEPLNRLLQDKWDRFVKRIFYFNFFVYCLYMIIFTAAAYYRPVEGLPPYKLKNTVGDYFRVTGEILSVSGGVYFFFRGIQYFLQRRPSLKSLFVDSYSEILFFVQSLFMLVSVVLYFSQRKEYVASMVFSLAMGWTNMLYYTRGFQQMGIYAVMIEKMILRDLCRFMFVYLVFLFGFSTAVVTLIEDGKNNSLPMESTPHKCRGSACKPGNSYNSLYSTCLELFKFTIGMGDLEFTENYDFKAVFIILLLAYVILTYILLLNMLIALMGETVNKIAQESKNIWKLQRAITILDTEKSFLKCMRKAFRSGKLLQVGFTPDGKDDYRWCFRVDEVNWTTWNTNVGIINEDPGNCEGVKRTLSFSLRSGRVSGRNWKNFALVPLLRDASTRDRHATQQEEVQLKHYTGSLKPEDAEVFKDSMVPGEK
T2 sequence (Q8NER1 whole entry): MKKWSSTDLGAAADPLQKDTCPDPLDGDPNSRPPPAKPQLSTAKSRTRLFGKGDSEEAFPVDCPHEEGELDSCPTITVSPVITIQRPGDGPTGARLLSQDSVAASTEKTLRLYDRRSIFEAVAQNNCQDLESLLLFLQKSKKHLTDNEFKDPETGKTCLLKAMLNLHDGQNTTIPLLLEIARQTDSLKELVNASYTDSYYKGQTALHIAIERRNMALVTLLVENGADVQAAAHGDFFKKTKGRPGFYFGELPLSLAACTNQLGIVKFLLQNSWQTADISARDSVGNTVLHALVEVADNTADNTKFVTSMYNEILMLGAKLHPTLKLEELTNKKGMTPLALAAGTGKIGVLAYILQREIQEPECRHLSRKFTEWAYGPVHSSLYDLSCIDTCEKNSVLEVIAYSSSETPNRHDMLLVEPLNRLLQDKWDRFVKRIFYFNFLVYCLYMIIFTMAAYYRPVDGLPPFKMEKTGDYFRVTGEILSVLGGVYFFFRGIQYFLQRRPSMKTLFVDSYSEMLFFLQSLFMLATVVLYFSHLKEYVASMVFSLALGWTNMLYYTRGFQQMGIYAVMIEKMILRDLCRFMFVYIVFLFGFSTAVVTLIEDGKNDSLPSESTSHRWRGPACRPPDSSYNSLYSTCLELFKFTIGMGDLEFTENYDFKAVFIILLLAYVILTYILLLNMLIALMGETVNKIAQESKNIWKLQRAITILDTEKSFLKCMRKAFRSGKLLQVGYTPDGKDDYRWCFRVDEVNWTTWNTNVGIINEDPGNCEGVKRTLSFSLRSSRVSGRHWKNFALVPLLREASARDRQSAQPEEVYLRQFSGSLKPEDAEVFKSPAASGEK
Chain of VR1/TRPV1 receptor (Q8NER1 whole entry): as above

As for `CC(C(=O)NCc1ccc(C(F)(F)F)nc1N(C)C)c1ccc(NS(C)(=O)=O)c(F)c1` (stereo not drawn) [Example 85, N-(2-dimethylamino-6-trifluoromethyl-pyridin-3-ylmethyl)-2-(3-fluoro-4-methylsulfonamido-phenyl)-propionamide], the pKi is 7.17 in assay [1] (read-out: Ki (rat) Cap.) and 7.72 on vanilloid receptor (VR1). The same compound gave a pIC50 against VR1/TRPV1 receptor of 5.62.
Taken in the same sequence, the figures for `CC(C)COc1nc(C(F)(F)F)ccc1CNC(=O)C(C)c1ccc(NS(C)(=O)=O)c(F)c1` (stereo not drawn) [Example 95, 2-(3-fluoro-4-methylsulfonamido-phenyl)-N-(2-isobutoxy-6-trifluoromethyl-pyridin-3-ylmethyl)-propionamide] were 9.10, 9.30 and 7.28.
Take `CC(C(=O)NCc1ccc(C(F)(F)F)nc1OCC1CCC1)c1ccc(NS(C)(=O)=O)c(F)c1` (stereo not drawn) [Example 101, N-(2-cyclobutylmethoxy-6-trifluoromethyl-pyridin-3-ylmethyl)-2-(3-fluoro-4-methylsulfonamido-phenyl)-propionamide]: the results for the negative logarithm of the Ki (pKi) (in assay [1] (Ki (rat) Cap.); at vanilloid receptor (VR1)) were 9.00 and 9.52, respectively. In addition, the negative-log IC50 (pIC50) at VR1/TRPV1 receptor was 7.39.
In the case of `CC(C(=O)NCc1ccc(C(F)(F)F)nc1N1CCCC1)c1ccc(NS(C)(=O)=O)c(Cl)c1` (stereo not drawn) [Example 102, 2-(3-chloro-4-methylsulfonamido-phenyl)-N-(2-pyrrolidin-1-yl-6 trifluoromethyl-pyridin-3-ylmethyl)-propionamide], the results for the negative logarithm of the Ki (pKi) (in assay [1] (read-out: Ki (rat) Cap.); at vanilloid receptor (VR1)) were 8.13 and 8.38, respectively. The inhibition at 10 µM at VR1/TRPV1 receptor (@ 10 μM, read-out: inhibition in percent, IC50 (human) after pH stimulus) is 18%.
Regarding `CC(C(=O)NCc1ccc(C(F)(F)F)nc1N1CCN(c2ccccc2)CC1)c1ccc(NS(C)(=O)=O)c(F)c1` (stereo not drawn) [Example 109, 2-(3-fluoro-4-methylsulfonamido-phenyl)-N-[2-(4-phenyl-piperazin-1-yl)-6-trifluoromethyl-pyridin-3-ylmethyl]-propionamide], the pKi in assay [1] (read-out: Ki (rat) Cap.) is 9.22; on vanilloid receptor (VR1) it was 9.15. At VR1/TRPV1 receptor, this compound gave a pIC50 of 7.51.
For `CCCOc1nc(C(F)(F)F)ccc1CNC(=O)C(C)c1ccc(NS(C)(=O)=O)c(F)c1` (stereo not drawn) [Example 111, 2-(3-fluoro-4-methylsulfonamido-phenyl)-N-(2-propoxy-6-trifluoromethyl-pyridin-3-ylmethyl)-propionamide] the same measures were 8.46, 9.05 and 7.05.
Consider `CC(C(=O)NCc1ccc(C(F)(F)F)cc1F)c1ccc(NS(C)(=O)=O)c(F)c1` (stereo not drawn) [Example 114, 2-(3-fluoro-4-methylsulfonamido-phenyl)-N-(2-fluoro-4-trifluoromethyl-benzyl)-propionamide], for which the pKi in assay [1] (read-out: Ki (rat) Cap.) is 7.55; on vanilloid receptor (VR1), 7.16. Also, the negative-log IC50 (pIC50) at VR1/TRPV1 receptor is 5.63.
`CC(C(=O)NCc1ccc(C(F)(F)F)nc1NCc1ccccc1)c1ccc(NS(C)(=O)=O)c(F)c1` (stereo not drawn) [Example 115, N-(2-benzylamino-6-trifluoromethyl-pyridin-3-ylmethyl)-2-(3-fluoro-4-methylsulfonamido-phenyl)-propionamide]: the negative-log Ki (pKi) in assay [1] (read-out: Ki (rat) Cap.) was 7.96; at vanilloid receptor (VR1), 7.80. The compound also showed a pIC50 on VR1/TRPV1 receptor of 6.69.
Taken in the same sequence, the figures for `CC(C(=O)NCc1ccc(C(F)(F)F)nc1-c1ccc(F)c(Cl)c1)c1ccc(NS(C)(=O)=O)c(F)c1` (stereo not drawn) [Example 118] were 9.70, 9.70 and 8.12.
Consider `C[C@H](C(=O)NCc1ccc(C(F)(F)F)nc1-c1ccc(F)c(Cl)c1)c1ccc(NS(C)(=O)=O)c(F)c1` [Example 120, (S)-N-[2-(3-chloro-4-fluoro-phenyl)-6-trifluoromethyl-pyridin-3-ylmethyl]-2-(3-fluoro-4-methylsulfonamido-phenyl)-propionamide], for which the results for the pKi (in assay [1] (read-out: Ki (rat) Cap.); at vanilloid receptor (VR1)) were 9.40 and 9.15, respectively. The inhibition at 1 µM on VR1/TRPV1 receptor (setting [2]) is 51%.
With `CC(C(=O)NCc1ccc(C(F)(F)F)nc1N1CCCCCCC1)c1ccc(NS(C)(=O)=O)c(F)c1` (stereo not drawn) [Example 128, N-(2-azocan-1-yl-6-trifluoromethyl-pyridin-3-ylmethyl)-2-(3-fluoro-4-methylsulfonamido-phenyl)-propionamide], the results for the pKi (in assay [1] (read-out: Ki (rat) Cap.); at vanilloid receptor (VR1)) were 9.00 and 9.15, respectively. For the same compound, the negative-log IC50 (pIC50) against VR1/TRPV1 receptor is 7.56.
For the compound `CC(C)COc1cc(C(C)(C)C)ccc1CNC(=O)C(C)c1ccc(NS(C)(=O)=O)c(F)c1` (stereo not drawn) [Example 133, N-(4-tert-butyl-2-isobutoxy-benzyl)-2-(3-fluoro-4-methylsulfonamido-phenyl)-propionamide], the negative-log Ki (pKi) in assay [1] (read-out: Ki (rat) Cap.) is 9.15; on vanilloid receptor (VR1), 8.68. The inhibition at 1 µM at VR1/TRPV1 receptor (setting [2]) turned out to be 62%.
For the compound `CC(C(=O)NCc1ccc(C(F)(F)F)nc1N1CCN(C)CC1)c1ccc(NS(C)(=O)=O)c(F)c1` (stereo not drawn) [Example 134, 2-(3-fluoro-4-methylsulfonamido-phenyl)-N-[2-(4-methyl-piperazin-1-yl)-6-trifluoromethyl-pyridin-3-ylmethyl]-propionamide], the values for the negative-log Ki (pKi) (in assay [1] (read-out: Ki (rat) Cap.); on vanilloid receptor (VR1)) were 6.47 and 6.84, respectively. On VR1/TRPV1 receptor (@ 25 μM, read-out: inhibition in percent, IC50 (human) after pH stimulus), the inhibition at 25 µM was determined as 69%.
For the compound `Cc1ccc(Nc2nc(C(F)(F)F)ccc2CNC(=O)C(C)c2ccc(NS(C)(=O)=O)c(F)c2)cc1C` (stereo not drawn) [Example 135, N-[2-(3,4-dimethyl-phenylamino)-6-trifluoromethyl-pyridin-3-ylmethyl]-2-(3-fluoro-4-methylsulfonamido-phenyl)-propionamide], the pKi in assay [1] (read-out: Ki (rat) Cap.) was 7.31; on vanilloid receptor (VR1), 7.41. In addition, the pIC50 against VR1/TRPV1 receptor was 5.94.
Taken in the same sequence, the figures for `CCCCCc1nc(C(F)(F)F)ccc1CNC(=O)C(C)c1ccc(NS(C)(=O)=O)c(F)c1` (stereo not drawn) [Example 142, 2-(3-fluoro-4-methylsulfonamido-phenyl)-N-(2-pentyl-6-trifluoromethyl-pyridin-3-ylmethyl)-propionamide] were 8.92, 9.00 and 8.05.
For `CC(C(=O)NCc1ccc(C(F)(F)F)nc1-c1cccc(Cl)c1)c1ccc(NS(C)(=O)=O)c(F)c1` (stereo not drawn) [Example 149, N-[2-(3-chloro-phenyl)-6-trifluoromethyl-pyridin-3-ylmethyl]-2-(3-fluoro-4-methylsulfonamido-phenyl)-propionamide] the same measures were 9.15, 9.30 and 8.01.
`COc1ccc(-c2nc(C(F)(F)F)ccc2CNC(=O)C(C)c2ccc(NS(C)(=O)=O)c(F)c2)cc1` (stereo not drawn) [Example 151, 2-(3-fluoro-4-methylsulfonamido-phenyl)-N-[2-(4-methoxy-phenyl)-6-trifluoromethyl-pyridin-3-ylmethyl]-propionamide]: the pKi in assay [1] (read-out: Ki (rat) Cap.) is 8.85; on vanilloid receptor (VR1), 9.00. On VR1/TRPV1 receptor, this compound gave a negative logarithm of the IC50 (pIC50) of 7.03.
In the case of `CCCCCOc1cc(C(C)(C)C)ccc1CNC(=O)C(C)c1ccc(NS(C)(=O)=O)c(F)c1` (stereo not drawn) [Example 153, N-(4-tert-butyl-2-pentyloxy-benzyl)-2-(3-fluoro-4-methylsulfonamido-phenyl)-propionamide], the negative logarithm of the Ki (pKi) in assay [1] (read-out: Ki (rat) Cap.) is 9.15; on vanilloid receptor (VR1), 8.66. In addition, the pIC50 against VR1/TRPV1 receptor was 7.03.
For `CC(C(=O)NCc1ccc(C(C)(C)C)cc1OC1CCCC1)c1ccc(NS(C)(=O)=O)c(F)c1` (stereo not drawn) [Example 155, N-(4-tert-butyl-2-cyclopentyloxy-benzyl)-2-(3-fluoro-4-methylsulfonamido-phenyl)-propionamide] the same measures were 9.10, 8.74 and 6.84.
